Source: PMC8251916 (Chemistry (Weinheim an Der Bergstrasse, Germany), 2021)
Like-named read-outs stand apart in the source and are kept apart here.

Experiments:
[1] = system: F10T (DNA, hairpin, hexaethylene glycol (HEG) linker between 10 and 11) TATAGCTATATATAGCTATA; assay: FRET melting; conditions: 10 mM K+, 90 mM Li+; 10 mM Li cacodylate; 1 µM ligand, 200 nM DNA
T. brucei [2] = system: T. brucei; set-up: method as in earlier work; conditions: typical G4 interactive compounds; ref 6b; cited from earlier work
[3] = system: Febr1T (DNA, G4) GGGCAGGGGGTGATGGGGAGGAGCCAGGG; assay: FRET melting; conditions: 10 mM K+, 90 mM Li+; 10 mM Li cacodylate; 1 µM ligand, 200 nM DNA
[4] = system: F10T-K+ (hairpin duplex DNA); assay: FRET melting assay, hairpin duplex DNA; type: binding; conditions: 200 nM DNA, PIPER and 3 not reliable (spectral overlap)
Experimental: (§1) With the library in hand, we began our investigation into G4 stabilization by conducting a Förster resonance energy transfer (FRET) melting assay to assess DNA stabilization using the procedure outlined by De Cian et. al. ^[13] […] The sequences examined (at 200 nM) were the human telomeric G4 in potassium buffer (F21T‐K^+, mixed parallel/hybrid G4) ^[14] and sodium buffer (F21T‐Na^+, antiparallel G4), ^[15] the c‐Myc promoter G‐quadruplex (FmycT‐K^+, parallel G4), ^[16] a polymorphic G4 found in T. brucei (FEBR1T‐K^+, a mixed G4 topology), ^[6b] and a hairpin duplex DNA sequence (F10T‐K^+). Together, these sequences represent targets for therapeutic intervention to treat parasitic infections, ^[6b] or cancer. ^[1b] The topology of each sequence was confirmed independently via circular dichroism (CD, Figure S1). […]
(§2) FRET melting assays were performed to assess ligand affinity for duplex and G-quadruplex
(§3) DNA. Briefly, oligonucleotides of interest were obtained labelled at the 5’ and 3’ ends with FAM (a fluorescence donor) and TAMRA (a fluorescence quencher), respectively. In the folded state, proximity of the donor and quencher result in no observed fluorescence from FAM, since energy is transferred non-radiatively to TAMRA by FRET. As the temperature is raised and the secondary structure denatures, the fluorophores move further apart and the fluorescence signal increases. From the resulting curve, the characteristic melting temperature (Tmax, also referred to as Tm) is defined as the temperature which corresponds to the maxima of the first derivative of the normalised fluorescence signal. The change in melting temperature (ΔTm) induced by the presence of a small molecule ligand provides an indication of the ligand’s ability to stabilise the DNA structure. FRET experiments were performed according to the […]
(§4) procedure reported by De Cian and co-workers[S3] on a Stratagene MX3005P. The method consisted of holding at 25 °C for 5 min, before heating at 1 °C/min to 96 °C in 1 °C increments, […]

[5] = system: F21T-Na+ (human telomeric G-quadruplex, antiparallel); assay: FRET melting assay, human telomeric G4 in sodium buffer; type: binding; conditions: 200 nM DNA, PIPER and 3 not reliable (spectral overlap)
Experimental: as §1, §2, §3, §4

[6] = system: F21T-K+ (human telomeric G-quadruplex, mixed parallel/hybrid); assay: FRET melting assay, human telomeric G4 in potassium buffer; type: binding; conditions: 200 nM DNA, PIPER and 3 not reliable (spectral overlap)
Experimental: as §1, §2, §3, §4

[7] = system: Febr1T-K+ (T. brucei G-quadruplex); assay: FRET melting assay, T. brucei G4; type: binding; conditions: 200 nM DNA, PIPER and 3 not reliable (spectral overlap)
Experimental: as §1, §2, §3, §4

[8] = system: F21T (DNA, G4) GGGTTAGGGTTAGGGTTAGGG; assay: FRET melting; conditions: 10 mM K+, 90 mM Li+, 10 mM Li cacodylate, 200 nM DNA
[9] = system: FMycT (DNA, G4) TTGAGGGTGGGTAGGGTGGGTAA; assay: FRET melting; conditions: 1 mM K+, 99 mM Li+; 10 mM Li cacodylate; 1 µM ligand, 200 nM DNA
[10] = system: FmycT-K+ (c-Myc promoter G-quadruplex, parallel); assay: FRET melting assay, c-Myc promoter G4; type: binding; conditions: 200 nM DNA, PIPER and 3 not reliable (spectral overlap)
Experimental: as §1, §2, §3, §4

T. brucei [11] = assay: Trypanocidal activity, alamarBlue assay; type: cell-based; conditions: Trypanosoma brucei; 72 h incubation, alamarBlue fluorescence; read-out: absolute EC50 T. brucei
Experimental: (§5) Doxorubicin, suramin and miltefosine were used as control compounds.[ ^6b , ^9 ] After incubation with varied concentrations of the compounds for 72 h, cell viability was measured using either an alamarBlue™ assay (for MRC5, HeLa and T. brucei) or MTT assay (for L. major). Absolute EC50 values and selectivity indexes were then calculated from dose‐response curves (Table 2 and S14). […]
(§6) Cell culture reagents were purchased from Thermo Fisher Scientific (Waltham, MA, USA) and used as-is. The Dulbecco’s Minimal Essential Medium (DMEM) formulation contained either high glucose (4.5 g/L, catalogue number: 10569) or low glucose (1 g/L, catalogue number:
(§7) 10567). RPMI-1640 was provided without sodium pyruvate and with L-glutamine (catalogue number: 11875). Phosphate Buffered Saline (PBS) contained NaCl (9 g/L), KH2PO4 (144 mg/L) and Na2HPO4-7.H2O (795 mg/L, catalogue number: 10010049). TrypLE Express™ was provided with EDTA (458 mg/L) and without Phenol Red (catalogue number: 12604021).
(§8) MRC-5 cells (human lung fibroblasts) were grown in monolayer (37 °C, 5 % CO2 and 100 % humidity) in DMEM medium (1 g/L glucose), supplemented with 10% heat-inactivated Fetal Bovine Serum (hiFBS), 2 mM L-glutamine, 100 U / mL penicillin and […]
(§9) streptomycin. […]
(§10) Cells were cultured according to ATCC recommendations and were used for the experiments while in the exponential growth phase. […]
hiFBS. Parasites were split every other day and maintained in their experimental growth phase (below 2 million parasites per mL).
(§11) Cytotoxicity was measured through the alamarBlue® assay (Thermo Fisher Scientific).[S6,S13] Briefly, 5×10^3 MRC-5 or HeLa cells were seeded in 96-wells plates (100 µL / well) in the presence of increasing concentrations of compound. After 72 hrs of incubation at 37 °C, 20 µL of alamarBlue® solution (110 ng / ml) was added to each well and cells were reincubated for 4 hrs at 37 °C. Then, 50 µL of 3 % SDS were added to each well. The plate was incubated at 37 °C for an extra hour and then analysed by fluorescence with an Infinite F200 plate reader (TECAN Austria, GmbH). The excitation wavelength was fixed at 550 nm and the emission wavelength at 590 nm. The results are expressed as the concentration of compound that reduces

MRC5 non-tumoral cells = assay: Cytotoxicity, alamarBlue assay, MRC5; type: cell-based, human; conditions: Homo sapiens, MRC5, 72 h, 72 h incubation, alamarBlue fluorescence; read-out: absolute EC50 MRC5
Experimental: as §5, §6, §7, §8, §9, §10, §11

L. major = assay: Leishmaniacidal activity, MTT assay; type: cell-based; conditions: Leishmania major; 72 h incubation, MTT absorbance; read-out: absolute EC50 L. major
Experimental: Doxorubicin, suramin and miltefosine were used as control compounds.[ ^6b , ^9 ] After incubation with varied concentrations of the compounds for 72 h, cell viability was measured using either an alamarBlue™ assay (for MRC5, HeLa and T. brucei) or MTT assay (for L. major). Absolute EC50 values and selectivity indexes were then calculated from dose‐response curves (Table 2 and S14).
Invitrogen). L. major promastigotes (MHOM/IL/80/Friedlin) were cultured at 28 °C, 5 % CO2 in modified RPMI-1640 medium (Thermo Fisher Scientific, Waltham, MA, USA) with 10% hiFBS. Parasites were split every other day and maintained in their experimental growth phase (below 2 million parasites per mL). […]
The results are expressed as the concentration of compound that reduces cell growth by 50 % versus untreated control cells (EC50) using GraphPad Prism 7 (GraphPad Software) to fit the data to a sigmoidal curve. Data are presented as the average of three independent measurements all conducted in triplicate conditions. […]
The leishmaniacidal activity of the compounds on promastigotes L. major (MHOM/IL/80/Friedlin) was carried out as previously described.[S14] Briefly, 4 × 10^6 / mL promastigotes were incubated for 72 h at 28 °C in 96-well plates (50 µL/well) in the presence of increasing concentration of compounds. Cell proliferation was determined using an MTT-based assay (Sigma-Aldrich). Thus, after the 72 h incubation, 10 µL of MTT (5 mg/ml) were added to each well and parasites were reincubated for 4 hrs at 28 °C. Then, 50 µL of 20 % SDS were added to each well. The plate was then incubated at 37°C for 4-16 hrs and analysed using an Infinite F200 plate reader (TECAN Austria, GmbH). The absorbance was measured […]
at a wavelength of 540 nm and the EC50 was calculated as described above. Data are presented as the average of three independent measurements, all conducted in triplicate conditions. […]

[12] = system: HeLa cervical carcinoma cells; assay: Cytotoxicity, alamarBlue assay, HeLa; type: cell-based, human; conditions: Homo sapiens, HeLa; 72 h incubation, alamarBlue fluorescence; read-out: absolute EC50 HeLa
Experimental: as §5, §6, §7
MRC-5 cells (human lung fibroblasts) were grown in monolayer (37 °C, 5 % CO2 and 100 % humidity) in DMEM medium (1 g/L glucose), supplemented with 10% heat-inactivated Fetal Bovine Serum (hiFBS), 2 mM L-glutamine, 100 U / mL penicillin and […] streptomycin. HeLa (Human cervical carcinoma cell line) cells were maintained at 37 °C and 5 % CO2 in high glucose DMEM (4.5 g / L) supplemented with 10% hiFBS, 100 U / ml penicillin, […] streptomycin, 2 mM L-glutamine and non-essential aminoacids (1X).
as §10, §11

`C[n+]1ccc(-c2c3nc(c(-c4cc[n+](C)cc4)c4ccc([nH]4)c(-c4cc[n+](C)cc4)c4nc(c(-c5cc[n+](C)cc5)c5ccc2[nH]5)C=C4)C=C3)cc1` gave a ΔTm [1] of 9 ± 1 °C.
For `CN(C)c1ccc(Nc2c3ccc(NC(=O)CCN4CCCC4)cc3nc3cc(NC(=O)CCN4CCCC4)ccc23)cc1` [BRACO‐19], the EC50 (T. brucei [2]) is listed as 7.8 µM and the “selectivity index (SI) T. brucei over MRC5” value (T. brucei [2]) is listed as 1.5.
In the case of `NCCOc1cc(C(=O)Nc2cc(OCCN)c3ccccc3n2)nc(C(=O)Nc2cc(OCCN)c3ccccc3n2)c1` [Pyridostatin, reference compound], the ΔTm [3] is reported as 29 ± 2 °C, the “ΔTm F10T-K+” value ([4]; 1 µM ligand) is reported as 1 ± 1 °C and the “ΔTm F21T-Na+” value ([5]; 1 µM ligand) is reported as 36 ± 2 °C. For the same compound, the EC50 (T. brucei [2]) was 5.5 µM, the “ΔTm F21T-K+” value ([6]; 1 µM ligand) was 34 ± 1 °C and the “ΔTm Febr1T-K+” value ([7]; 1 µM ligand) was 29 ± 2 °C. For the same compound, the ΔTm ([8]; 1 µM ligand) was 34 ± 1 °C, the ΔTm [9] was 20 ± 3 °C and the “ΔTm FmycT-K+” value ([10]; 1 µM ligand) was 20 ± 3 °C.
With `CN1CCN(CCCN2C(=O)c3ccc(-c4ccc5c(c4)C(=O)N(CCCN4CCN(C)CC4)C5=O)cc3C2=O)CC1` [Compound 4] the EC50 (T. brucei [11]) was 57 ± 10 µM, the “ΔTm F10T-K+” value ([4]; 10 µM ligand) was 0 ± 1 °C and the “ΔTm F21T-Na+” value ([5]; 10 µM ligand) was -2 ± 2 °C. The EC50 (MRC5 non-tumoral cells) was greater than 100 µM, the “ΔTm F21T-K+” value ([6]; 10 µM ligand) was 1 ± 1 °C and the EC50 (L. major) was greater than 100 µM. For the same compound, the “ΔTm Febr1T-K+” value ([7]; 10 µM ligand) was 3 ± 1 °C, the ΔTm ([8]; 10 µM ligand) was 1 ± 1 °C and the EC50 [12] was greater than 100 µM. The “ΔTm FmycT-K+” value ([10]; 10 µM ligand) was 2 ± 1 °C.
